Test [1] deals with co-cultures of neuronal cells and U87 glioma cells. Kind of test: Co-culture of primary neurons and U87 glioma cells. It is filed as cell-based, mouse / human. As to conditions: 1 µM. How it is done:
The selectivity of illudins 1 and 2 for U87 glioblastoma cells versus normal neuronal cells was evaluated by applying them to co-cultures of these cells serving as a surrogate brain tumor model. To this end, isolated murine primary neurons were grown on IBIDI dishes and after […] and the establishment of neuronal aggregates, the glioma U87 cells (~ 25,000 cells) were added to the neuronal culture. After 12 h, 1 and 2 were applied in 1 µM concentrations and the response of the different cells was monitored over a period between 15 and 48 h post incubation (Figure 8). In the control samples, the number of proliferating U87 cells increased with time and overgrew the diminishing number of differentiating neurons.
(§1) NE-4C cells derived from the anterior brain vesicles of p53-deficient 9-day-old mouse embryos were maintained in Minimum Essential Medium (MEM; Sigma Aldrich, Taufkirchen, Germany) supplemented with 5% fetal calf serum (FCS; Invitrogen-Gibco, Carlsbad, CA, USA), 4 mM glutamine (Sigma-Aldrich, Taufkirchen, Germany) and 40 ug/mL gentamycin (Chinoin, Budapest, Hungary). For maintenance, subconfluent cultures were regularly split by trypsinization (0.05 w/v% trypsin in PBS) into poly-L-lysine-coated Petri dishes. Primary astrocytes were isolated from whole brains of neonatal (P0-P3) mice, as described earlier. In brief, meninges were removed, and the tissue pieces were subjected to enzymatic dissociation, using 0.05% w/v trypsin and 0.05% w/v DNase for 10 min at room temperature. The cells were plated onto poly-L-lysine coated plastic surfaces and grown in MEM supplemented with 10% fetal calf serum, 4 mM glutamine and 40 ug/mL gentamycin. Primary neuronal cultures were prepared from embryonic (E15–E16) mouse (CD1) forebrains, as described earlier. In brief, cell suspensions were prepared by mechanical dissociation over a nylon mesh with a pore diameter of 40–42 μm. The cells were seeded at 10^5 cells/cm^2 density onto PLL-coated surfaces. The cultures were maintained in MEM supplemented with 5% FCS, 4 mM glutamine, 40 µg/mL gentamicin and 2.5 μg/mL amphotericin B (Sigma). In co-culture experiments, U87 glioma cells were seeded onto established neuronal cultures at DIV3 in a 25,000 cell/cm^2 density.
Figure 8 Co-culture of neuronal cells and U87 glioma cells in the absence or presence of 1 µM of 1 or 2. The neuronal aggregates are marked by arrowheads. Scale bar: 100 µm.

The subject of the next test is U251 glioblastoma cells. Kind of test: MTT cell viability assay, U251 glioblastoma. Format: cell-based. As to conditions: Homo sapiens, read-out: Inhibitory concentration IC50. How it is done: U251 (formerly known as U-373 MG; ECACC 09063001), Mz54 (CVCL_M406) human glioblastoma cell lines were cultured in DMEM+GlutaMax supplemented with 10% fetal bovine serum and 1% penicillin/streptomycin mixture. The human glioma cell line Mz54 was obtained from the Dept. of Neurosurgery, University Medical Centre, Johannes Gutenberg University Mainz, Germany, where this line was isolated from a recurrent grade IV glioblastoma. U251 and Mz54 cells were used in passages between 10 and 25 after re-authentication and 40 to 55 after culture establishment, respectively. Only mycoplasma-free cell cultures were used.
(§2) […] Afterward, 10 µL of a 5 mg/mL MTT solution in PBS was added to the cells for 3 h at 37 °C. Then, the spheres were centrifuged shortly to collect the cells on the bottom of the plate, and the medium was removed by careful pipetting for both adherently grown and floating sphere GBM cultures. Afterward, formazan was dissolved in a mixture (24:1 v:v) of isopropanol and 1 M HCl using 100 µL for adherent cells by shaking the plates for at least 20 min. The absorbance of formazan (λ = 570 nm), and background (λ = 630 nm) was measured with a microplate reader (Tecan Spark, Tecan Deutschland GmbH, Crailsheim, Germany).

The test system of the next test is U87 glioma cells. Kind of test: MTT cell viability assay, U87 glioma. As to conditions: Homo sapiens, U-87 MG, read-out: Inhibitory concentration IC50. It is filed as cell-based. As for the experimental part:
(§3) 518A2 (Department of Radiotherapy, Medical University of Vienna, Vienna, Austria) melanoma, KB-V1^Vbl (ACC-149) cervix carcinoma, MCF-7^Topo (ACC-115) breast carcinoma, HT29 (ACC-299) colon carcinoma were cultivated in Dulbecco’s Modified Eagle Medium (DMEM) supplemented with 10% fetal bovine serum and 1% antibiotic-antimycotic at 37 °C, 5% CO2, and 95% humidity. To keep MCF-7^Topo and KB-V1^Vbl cells resistant, the maximum-tolerated doses of topotecan or vinblastine were added to the cell culture medium 24 h after every passage. The human HL60 leukemia cells were obtained from the German National Resource Center for Biological Material (DSMZ), Braunschweig. Neuroectodermal stem cells NE-4C (ATCC No. CRL-2925), primary mouse astrocytes, rat glioma C6 (ATCC No. CCL-107) and human glioma U87 (ATCC No. HTB-14) were used.
as §2

A further test deals with C6 astrocytoma cells. Kind of test: MTT cell viability assay, C6 astrocytoma. It is filed as cell-based. Particulars: Rattus norvegicus, read-out: Inhibitory concentration IC50. How it is done: as §3
(§4) Non-GBM cells (5 × 10^4 cells/mL, 100 µL/well) were grown in 96-well plates for 24 h. Then, they were treated with various concentrations of the test compounds or vehicle (DMSO, or EtOH) for 72 h at 37 °C. After the addition of 12.5 µL of a 0.5% MTT solution in PBS, the cells were incubated for 3 h at 37 °C so that the water-soluble MTT could be converted to formazan crystals. Then, the plates were centrifuged (300× g, 5 min, 4 °C), the medium withdrawn, and the formazan dissolved in 25 µL of DMSO containing 10% sodium dodecylsulfate (SDS) and 0.6% acetic acid for at least 2 h at 37 °C. In the case of the HL60 cells, after 2 h, the precipitate of formazan crystals was redissolved in a 10% solution of SDS in DMSO containing 0.6% acetic acid.
as §2
In general terms: Formazan colour is commonly taken as a measure of viable cells.

A further test has as its system primary neurons. Kind of test: MTT cell viability assay, primary neurons. It is filed as cell-based. As to conditions: Mus musculus, Primary neuron, read-out: Inhibitory concentration IC50. How it is done: as §1
as §4, with “Then, they were treated with various concentrations of the test compounds or vehicle (DMSO, or EtOH) for 72 h at 37 °C.” left out

Here are results for two molecules from paper PMC9408991, “Antitumor Effects of a New Retinoate of the Fungal Cytotoxin Illudin M in Brain Tumor Models” (International Journal of Molecular Sciences, 2022).

Where two headings read alike, the source gives them in different places.

Turning to `CC1=C2C(=CC(C)(C)[C@@H]2O)C(=O)[C@](C)(O)C12CC2` [Compound 1, illudin M], the figures for the “response of neurons and U87 cells in co-culture” value in test [1] (15 h after treatment) and in test [1] (48 h after treatment) were “considerable cellular fragmentation” and “merely cell debris”, respectively. Also, the IC50 in the test on U251 glioblastoma cells (U-251, U251, 24 h exposure) was found to be 300 ± 50 nM; with U251 glioblastoma cells (U-251, U251, 48 h exposure), 120 ± 20 nM; with U87 glioma cells (U87, 24 h exposure), 630 ± 40 nM; in the test with U87 glioma cells (U87, 48 h exposure) it was 130 ± 30 nM; with C6 astrocytoma cells (C6, 24 h exposure), 1000 ± 300 nM; in the test with C6 astrocytoma cells (C6, 48 h exposure), 400 ± 60 nM. For the same molecule, the IC50 came out at 600 ± 120 nM in the test with primary neurons (24 h exposure) and 190 ± 40 nM in the test with primary neurons (48 h exposure).

Consider `CC1=C(/C=C/C(C)=C/C=C/C(C)=C/C(=O)O[C@@H]2C3=C(C)C4(CC4)[C@@](C)(O)C(=O)C3=CC2(C)C)C(C)(C)CCC1` [Compound 2, illudin M retinoate], for which the “response of neurons and U87 cells in co-culture” value in test [1] (15 h after treatment) was “healthy and compact neuronal aggregates”; in test [1] (48 h after treatment), “many neurons were still present”. Further, the IC50 turned out to be 4510 ± 1300 nM in the test on U251 glioblastoma cells (U-251, U251, 48 h exposure); 37000 ± 3000 nM in the test on U87 glioma cells (U87, 24 h exposure); 2700 ± 700 nM with U87 glioma cells (U87, 48 h exposure); 40000 ± 4000 nM with C6 astrocytoma cells (C6, 24 h exposure); 12000 ± 1300 nM in the test with C6 astrocytoma cells (C6, 48 h exposure); 26000 ± 1000 nM in the test with primary neurons (24 h exposure). Also, the IC50 with primary neurons (48 h exposure) was determined as 14000 ± 2000 nM.
